Measured values from patent publication US10457707B2, “Substituted urea depsipeptide analogs as activators of the CLPP endopeptidase” (priority 2015, dated 2019).
Converted amounts (≈) assume the structure as drawn. Where two headings read alike, the source gives them in different places. *1 amine or outer side, *2 acyl side, *3 side chain or, on linkers, in order; H or OH if unused. Where a SMILES comes first, the peptide text is derived from it. Bridges are numbered along the chain shown (N, C = ends). [ ]: non-standard residue; d: D form. The star is where a group is joined. ξ: configuration not given here. Phe(3,5-F2) = N[C@@H](Cc1cc(F)cc(F)c1)C(=O)O; NH(4-OCF3-phenyl) = FC(F)(F)Oc1ccc(N*)cc1; Pro(4R-Me) = C[C@H]1CN[C@H](C(=O)O)C1; ξPro(4R-OH) = O=C(O)C1C[C@@H](O)CN1; ξPro(4S-Me) = C[C@@H]1CNC(C(=O)O)C1; ξPro(4R-Me) = C[C@H]1CNC(C(=O)O)C1; NH(4-Et-phenyl) = CCc1ccc(N*)cc1; aThr = C[C@H](O)[C@H](N)C(=O)O; X12 = c1nc2ccc(N*)cc2[nH]1; Pip = O=C(O)[C@@H]1CCCCN1; NMeA = CN[C@@H](C)C(=O)O; ξPip = O=C(O)C1CCCCN1; CO = O=C([*:1])[*:2]; ξP = O=C(O)C1CCCN1

Assays:
Type in all cases: cell-based
[1] = test system: Staphylococcus aureus, ATCC 29213; assay: Minimal inhibitory concentration assay (microbroth dilution); conditions: ATCC29213, read-out: Minimal Inhibitory Concentrations S. aureus ATCC 29213
Method: (§1) It is understood, that in various aspects, the MIC is determined by a microbroth dilution method. In a further aspect, the MIC is determined by a microbroth dilution method using Staphylococcus aureus, ATCC 29213. In a still further aspect, the MIC is determined by a microbroth dilution method using Staphylococcus aureus, NRS70. In a yet further aspect, the MIC is determined by a microbroth dilution method using Streptococcus pyogenes, ATCC 700294. In an even further aspect, the MIC is determined by a microbroth dilution method using Streptococcus pneumoniae, DAW27. In a still further aspect, the MIC is determined by a microbroth dilution method using Bacillus subtilis, ATCC 23857. In a yet further aspect, the MIC is determined by a microbroth dilution method using Enterococcus faecalis, ATCC 33186. In an even further aspect, the MIC is determined using Staphylococcus aureus, USA 300. In a still further aspect, the MIC is determined using Streptococcus pneumoniae, R6. In a further aspect, the MIC is determined using Staphylococcus aureus, USA 300 and compared to the MIC determined using Staphylococcus aureus, USA 300 wherein ClpP is inactivated, thus allowing confirmation that killing is via a ClpP-dependent pathway.
(§2) Minimal inhibitory concentrations (“MICs”) were determined using the microbroth dilution method according to Clinical Laboratory Standards Institute (CLSI; National, C.F. C. L. S., Methods for Dilution Antimicrobial Susceptibility Tests for Bacteria Grow aerobically-Seventh Edition: Approved Standard M7-A7, CLSI, Wayne, Pa., USA, 2008) and were read by visual inspection. Two fold serial dilutions of test compound in 100 μL of the appropriate broth media were first prepared in 96-well round bottom microtiter plates (Nalgene Nunc International, Rochester, N.Y., USA). An equivalent volume (100 μL) of bacterial broth inocula containing approximately 10^5 bacterial cfu/mL was added to each well to give final concentrations of test compound starting at 200 μM. The plates were then incubated aerobically at 37° C. All strains were incubated overnight. After incubations, in all cases the MIC was recorded as the lowest concentration of drug that prevented bacterial growth. The bacterial strains for which MIC was determined as described in Table 4.

[2] = test system: Bacillus subtilis, ATCC 23857; assay: as above; conditions: Bacillus subtilis, ATCC23857; read-out: Minimal Inhibitory Concentrations B. subtilis ATCC 23857
Method: as §1, §2

[3] = test system: Staphylococcus aureus, NRS70; assay: as above
Method: as §1, §2

[4] = test system: Staphylococcus aureus, USA 300; assay: Minimal inhibitory concentration assay; conditions: USA300, read-out: Minimal Inhibitory Concentrations S. aureus USA 300
Method: as §1, §2

[5] = test system: Staphylococcus aureus, USA 300 wherein ClpP is inactivated; assay: Minimal inhibitory concentration assay
Method: as §1, §2

[6] = test system: Streptococcus pyogenes, ATCC 700294; assay: Minimal inhibitory concentration assay (microbroth dilution); conditions: Streptococcus pyogenes, ATCC700294; read-out: Minimal Inhibitory Concentrations S. pyogenes ATCC 700294
Method: as §1
Minimal inhibitory concentrations (“MICs”) were determined using the microbroth dilution method according to Clinical Laboratory Standards Institute (CLSI; National, C.F. C. L. S., Methods for Dilution Antimicrobial Susceptibility Tests for Bacteria Grow aerobically-Seventh Edition: Approved Standard M7-A7, CLSI, Wayne, Pa., USA, 2008) and were read by visual inspection. Two fold serial dilutions of test compound in 100 μL of the appropriate broth media were first prepared in 96-well round bottom microtiter plates (Nalgene Nunc International, Rochester, N.Y., USA). […] The plates were then incubated aerobically at 37° C. All strains were incubated overnight. After incubations, in all cases the MIC was recorded as the lowest concentration of drug that prevented bacterial growth. The bacterial strains for which MIC was determined as described in Table 4.

[7] = test system: Enterococcus faecalis, ATCC 33186; assay: as above; conditions: Enterococcus faecalis, ATCC33186, read-out: Minimal Inhibitory Concentrations E. faecalis ATCC 33186
Method: as §1, §2

[8] = Staphylococcus aureus, NRS70; read-out: Minimal Inhibitory Concentrations S. aureus NRS70

Row | SMILES | MIC [1] | MIC [2] | MIC [3, 8] | MIC [4] | Minimal Inhibitory Concentrations S. aureus USA 300 ΔClpP [5] | MIC [6] | MIC [7] | MIC ([3]; Staphylococcus aureus, NRS70, read-out: Minimal Inhibitory Concentrations S. aureus NRS70)
1 | CCc1ccc(NC(=O)N[C@@H](Cc2cc(F)cc(F)c2)C(=O)N[C@@H]2C(=O)N3CCCC3C(=O)N(C)[C@@H](C)C(=O)N[C@@H](C)C(=O)N3C[C@@H](C)CC3C(=O)O[C@H]2C)cc1 (stereo partly drawn) [Compound 30, (S)-3-(3,5-difluorophenyl)-2-(3-(4-ethylphenyl)ureido)-N-((2S,6S,9S,11aS,17S,18S,20aS)-2,6,9,10,18-pentamethyl-5,8,11,16,20-pentaoxohexadecahydro-1H,5H,16H-dipyrrolo[2,1-c:2′,1′-L][1]oxa[4,7,10,13]tetraazacyclohexadecin-17-yl)propanamide] ({NH(4-Et-phenyl)-CO}-[Phe(3,5-F2)][aThr][ξP][NMeA]A[ξPro(4S-Me)]; ester 2-C) | 0.1 µM (≈ 0.0796 µg/mL) | 0.001 µM (≈ 0.000796 µg/mL) | 0.2 µM (≈ 0.159 µg/mL) | 0.1 µM (≈ 0.0796 µg/mL) | 50 µM | 0.03 µM (≈ 0.0239 µg/mL) |  | 
2 | C[C@@H]1C[C@H]2C(=O)O[C@@H](C)[C@H](NC(=O)[C@H](Cc3cc(F)cc(F)c3)NC(=O)Nc3ccc4nc[nH]c4c3)C(=O)N3CCC[C@H]3C(=O)N3CCCC[C@H]3C(=O)N[C@@H](C)C(=O)N2C1 [Compound 303, (S)-2-(3-(1H-benzo[d]imidazol-6-yl)ureido)-3-(3,5-difluorophenyl)-N-((2R,6S,8aS,14aS,20S,21S,23aS)-2,6,21-trimethyl-5,8,14,19,23-pentaoxooctadecahydro-1H,5H,14H,19H-pyrido[2,1-i]dipyrrolo[2,1-c:2′,1′-l][1]oxa[4,7,10,13]tetraazacyclo-hexadecin-20-yl)propanamide] ({X12-CO}-[Phe(3,5-F2)][aThr]P[Pip]A[Pro(4R-Me)]; ester 2-C) | 20 µM (≈ 16.7 µg/mL) |  |  | 15.1 µM (≈ 12.6 µg/mL) | >20 µM |  | 2.5 µM (≈ 2.08 µg/mL) | 10.1 µM (≈ 8.42 µg/mL)
3 | C[C@@H]1NC(=O)[C@H](C)N(C)C(=O)C2CCCN2C(=O)[C@@H](NC(=O)[C@H](Cc2cc(F)cc(F)c2)NC(=O)Nc2ccc(OC(F)(F)F)cc2)[C@H](C)OC(=O)C2CCCN2C1=O (stereo partly drawn) [Compound 27, (2S)-3-(3,5-difluorophenyl)-N-((6S,9S,11aS,17S,18S)-6,9,10,18-tetramethyl-5,8,11,16,20-pentaoxohexadecahydro-1H,5H,16H-dipyrrolo[2,1-c:2′,1′-l][1]oxa[4,7,10,13]tetraazacyclohexadecin-17-yl)-2-(3-(4-(trifluoromethoxy)phenyl)ureido)propanamide] ({NH(4-OCF3-phenyl)-CO}-[Phe(3,5-F2)][aThr][ξP][NMeA]A[ξP]; ester 2-C) | 0.2 µM (≈ 0.168 µg/mL) | 0.02 µM (≈ 0.0168 µg/mL) | 0.2 µM (≈ 0.168 µg/mL) | 0.2 µM (≈ 0.168 µg/mL) | 100 µM | 0.23 µM (≈ 0.193 µg/mL) |  | 
4 | C[C@H]1CC2C(=O)O[C@@H](C)[C@H](NC(=O)[C@H](Cc3cc(F)cc(F)c3)NC(=O)Nc3ccc(OC(F)(F)F)cc3)C(=O)N3C[C@H](O)CC3C(=O)N(C)[C@@H](C)C(=O)N[C@@H](C)C(=O)N2C1 (stereo partly drawn) [Compound 32, (S)-3-(3,5-difluorophenyl)-N-((2S,6S,9S,11aS,13R,17S,18S,20aS)-13-hydroxy-2,6,9,10,18-pentamethyl-5,8,11,16,20-pentaoxohexadecahydro-1H,5H,16H-dipyrrolo[2,1-c:2′,1′-l][1]oxa[4,7,10,13]tetraazacyclohexadecin-17-yl)-2-(3-(4-(trifluoromethoxy)phenyl)ureido)propanamide] ({NH(4-OCF3-phenyl)-CO}-[Phe(3,5-F2)][aThr][ξPro(4R-OH)][NMeA]A[ξPro(4S-Me)]; ester 2-C) | 0.1 µM (≈ 0.0868 µg/mL) | 0.39 µM (≈ 0.338 µg/mL) | 0.1 µM (≈ 0.0868 µg/mL) | 0.39 µM (≈ 0.338 µg/mL) | 100 µM | 0.2 µM (≈ 0.174 µg/mL) |  | 
5 | C[C@H]1CC2C(=O)OC[C@H](NC(=O)[C@H](Cc3cc(F)cc(F)c3)NC(=O)Nc3ccc4c(c3)OCO4)C(=O)N3CCCC3C(=O)N3CCCCC3C(=O)N[C@@H](C)C(=O)N2C1 (stereo partly drawn) [Compound 46, (S)-2-(3-(benzo[d][1,3]dioxol-5-yl)ureido)-3-(3,5-difluorophenyl)-N-((2S,6S,8aS,14aS,20S,23aS)-2,6-dimethyl-5,8,14,19,23-pentaoxooctadecahydro-1H,5H,14H,19H-pyrido[2,1-i]dipyrrolo[2,1-c:2′,1′-l][1]oxa[4,7,10,13]tetraazacyclohexadecin-20-yl)propanamide] | 3.1 µM (≈ 2.55 µg/mL) | 0.4 µM (≈ 0.33 µg/mL) | 1.6 µM (≈ 1.32 µg/mL) | 3.1 µM (≈ 2.55 µg/mL) | 200 µM | 0.8 µM (≈ 0.659 µg/mL) |  | 
6 | C[C@@H]1CC2C(=O)O[C@@H](C)[C@H](NC(=O)[C@H](Cc3cc(F)cc(F)c3)NC(=O)Nc3ccc(OC(F)(F)F)cc3)C(=O)N3CCCC3C(=O)N3CCCCC3C(=O)N[C@@H](C)C(=O)N2C1 (stereo partly drawn) [Compound 40, (S)-3-(3,5-difluorophenyl)-2-(3-(4-(trifluoromethoxy)phenyl)ureido)-N-((2R,6S,8aS,14aS,20S,21S,23aS)-2,6,21-trimethyl-5,8,14,19,23-pentaoxooctadecahydro-1H,5H,14H,19H-pyrido[2,1-i]dipyrrolo[2,1-c:2′,1′-L][1]oxa[4,7,10,13]tetraazacyclohexadecin-20-yl)propanamide] ({NH(4-OCF3-phenyl)-CO}-[Phe(3,5-F2)][aThr][ξP][ξPip]A[ξPro(4R-Me)]; ester 2-C) | 0.05 µM (≈ 0.0439 µg/mL) | 0.02 µM (≈ 0.0176 µg/mL) | 0.02 µM (≈ 0.0176 µg/mL) | 0.05 µM (≈ 0.0439 µg/mL) | 25 µM | 0.4 µM (≈ 0.351 µg/mL) |  | 
7 | C[C@H]1CC2C(=O)OC[C@H](NC(=O)[C@H](Cc3ccccc3)NC(=O)Nc3ccc(OC(F)(F)F)cc3)C(=O)N3CCCC3C(=O)N3CCCCC3C(=O)N[C@@H](C)C(=O)N2C1 (stereo partly drawn) [Compound 44, (S)—N-((2S,6S,8aS,14aS,20S,23aS)-2,6-dimethyl-5,8,14,19,23-pentaoxooctadecahydro-1H,5H,14H,19H-pyrido[2,1-i]dipyrrolo[2,1-c:2′,1′-l][1]oxa[4,7,10,13]tetraazacyclohexadecin-20-yl)-3-phenyl-2-(3-(4-(trifluoromethoxy)phenyl)ureido)propanamide] | 0.4 µM (≈ 0.331 µg/mL) | 0.1 µM (≈ 0.0828 µg/mL) | 0.4 µM (≈ 0.331 µg/mL) | 0.8 µM (≈ 0.662 µg/mL) | 50 µM | 0.2 µM (≈ 0.166 µg/mL) |  | 
8 | CCc1ccc(NC(=O)N[C@@H](Cc2cc(F)cc(F)c2)C(=O)N[C@@H]2C(=O)N3CCCC3C(=O)N(C)[C@@H](C)C(=O)N[C@@H](C)C(=O)N3CCCC3C(=O)O[C@H]2C)cc1 (stereo partly drawn) [Compound 29, (2S)-3-(3,5-difluorophenyl)-2-(3-(4-ethylphenyl)ureido)-N-((6S,9S,11aS,17S,18S)-6,9,10,18-tetramethyl-5,8,11,16,20-pentaoxohexadecahydro-1H,5H,16H-dipyrrolo[2,1-c:2′,1′-l][1]oxa[4,7,10,13]tetraazacyclohexadecin-17-yl)propanamide] ({NH(4-Et-phenyl)-CO}-[Phe(3,5-F2)][aThr][ξP][NMeA]A[ξP]; ester 2-C) | 0.2 µM (≈ 0.156 µg/mL) | 0.01 µM (≈ 0.00782 µg/mL) | 0.2 µM (≈ 0.156 µg/mL) | 0.2 µM (≈ 0.156 µg/mL) | 100 µM | 0.13 µM (≈ 0.102 µg/mL) |  | 
